Results on 45 compounds are retold here after patent US9012493B2, “1-heterodiene derivative and pest control agent” (Nippon Soda Co., Ltd., priority 2009, dated 2015).

Common to all, as to format: in vivo
For assay [1], the system named is Rice Armyworm (Mythimna Separata). Put plainly: Efficacy test against rice armyworm, corn leaf dip. The settings on record: 125 ppm, emulsifiable concentrate diluted with water, corn leaves immersed, second instar larvae, after 5 days, 25° C. As to the method:
(§1) Test Examples of the pest control agent thus obtained according to the present invention are shown below. In respective Test Examples, the insecticidal rate (%) was determined by the following calculation equation. Insecticidal rate (%)=(number of dead pests/number of released pests)×100
The emulsifiable concentrate obtained according to Formulation of Formulation Example 2 was diluted with water so as to control the concentration of the compound to 125 ppm. Leaves of corn were immersed in this diluted solution for 30 seconds and then air-dried. The leaves were put in a petri dish on which a filter paper is laid, and then five second instar larvae of rice armyworm were inoculated. After covering the petri dish with a glass lid, the petri dish was placed in a temperature-controlled room at a temperature of 25° C. and a humidity of 65%. After 5 days, life and death were examined and the insecticidal rate was determined. The test was repeated twice.

For assay [2], the system named is Sweetpotato Whitefly (Bemisia Tabaci). Put plainly: Efficacy test against sweetpotato whitefly, sprayed tomato leaf. The conditions noted are these: 125 ppm, emulsifiable concentrate diluted with water, adults (type B), after 2 days, 25° C. As to the method:
as §1
The emulsifiable concentrate obtained according to Formulation of Formulation Example 2 was diluted with water so as to control the concentration of the compound to 125 ppm. The diluted solution was sprayed over a tomato leaf obtained by cutting and then air-dried. Using absorbent cotton, the leaf was fixed to a flask so that a front surface of the leaf faces upward. Seven pairs of adults of sweetpotato whitefly (type B) were inoculated in this container, and the container was placed in a temperature-controlled room at a temperature of 25° C. and a humidity of 65%. After 2 days, life and death were examined and the insecticidal rate was determined. The test was repeated twice.

For assay [3], the system named is Cotton Aphid (Aphis Gossypii). Put plainly: Efficacy test against cotton aphid, spray on cucumber plant. The conditions noted are these: 125 ppm, emulsifiable concentrate diluted with water, sprayed over cucumber plant with nymphs, after 5 days, 25° C. As to the method:
as §1
The emulsifiable concentrate obtained according to Formulation of Formulation Example 2 was diluted with water so as to control the concentration of the compound to 125 ppm. Adults of cotton aphids were inoculated to a cucumber plant (approximately 10 days after sprouting) sown in a 3 sun/size pot (9 cm). After 1 day, adult aphids were removed and the diluted solution was sprayed over the cucumber plant on which delivered nymphs are parasitic. The pot was placed in a temperature-controlled room at a temperature of 25° C. and a humidity of 65%. After 5 days, life and death were examined and the insecticidal rate was determined. The test was repeated twice.

For the compound `C=C1SC(=Nc2ccc(C)cc2)C(=CSc2ccc3ccccc3c2)CC1(C)C` (mixture of isomers) [Compound 2-88], the insecticidal rate in assay [1] and in assay [2] was 100% in each case.
For the compound `C=C1SC(=Nc2ccc(C)cc2)C(=CSc2ccc([N+](=O)[O-])cc2)CC1(C)C` (mixture of isomers) [Compound 6-4], in assay [1], the insecticidal rate is on record as 100%.
Regarding `C=C1SC(=Nc2ccc(C)cc2)C(=CSC2CCCCC2)CC1(C)C` (mixture of isomers) [Compound 6-5], the insecticidal rate in assay [1] and in assay [2] was 100% in each case.
In the case of `C=C1SC(=Nc2ccc(C)cc2)C(=CSC2CCc3ccccc32)CC1(C)C` (racemic) [Compound 2-115], the insecticidal rate in assay [1] and in assay [2] was 100% each time.
For the compound `C=C1SC(=Nc2ccc(OC)cc2)C(=CSc2ccccc2)CC1(C)CCC=C(C)C` (racemic) [Compound 2-130], the insecticidal rate in assay [1] and in assay [2] was 100% each time.
On to `CC(C)=C1CC(=CSc2ccccc2)C(=Nc2ccc(Cl)cc2)S1` [Compound 1-2], for which the insecticidal rate in assay [1] and in assay [2] was 100% in each case.
With `CC(C)=C1CC(=CSc2ccccc2)C(=[NH+]c2ccc(Cl)cc2)S1.F[B-](F)(F)F` [Compound 1-3], the insecticidal rate in assay [1] and in assay [2] was 100% each time.
With `C=C1CCC(=CSc2ccccc2)C(=Nc2ccc(Cl)cc2)S1` [Compound 2-1], the insecticidal rate in assay [1] and in assay [2] was 100% in each case.
With `C=C1CCC(=CSc2ccccc2)C(=Nc2ccc(C(F)(F)F)cc2)S1` [Compound 2-5], the insecticidal rate in assay [1] and in assay [2] was 100% each time.
In assay [3], `C=C1CCC(=CSc2ccccn2)C(=Nc2ccc(C)cc2)S1` [Compound 2-7] gave an insecticidal rate of 100%.
For the compound `C=C1CCC(=CSc2ccccc2)C(=Nc2ccc(OC)cc2)S1` [Compound 2-8], the insecticidal rate in assay [1], in assay [3] and in assay [2] was 100% throughout.
For `C=C1CCC(=CSc2ccc(F)cc2)C(=Nc2ccc(OC)cc2)S1` [Compound 2-9], the insecticidal rate in assay [1], in assay [3] and in assay [2] was 100% throughout.
For the compound `C=C1SC(=Nc2ccc(OC)cc2)C(=CSc2ccccc2)CC1(C)C` [Compound 2-16], the insecticidal rate in assay [1], in assay [3] and in assay [2] was 100% each time.
As for `C=C1SC(=Nc2ccc(C)cc2)C(=CSc2ccc(OC)cc2)CC1(C)C` [Compound 2-18], the insecticidal rate in assay [1], in assay [3] and in assay [2] was 100% each time.
In the case of `C=C1SC(=Nc2ccc(C)cc2)C(=CSc2ccccc2OC)CC1(C)C` [Compound 2-19], the insecticidal rate in assay [1], in assay [3] and in assay [2] was 100% in each case.
On to `C=C1SC(=Nc2ccc(C)cc2)C(=CSc2ccc(NC(C)=O)cc2)CC1(C)C` [Compound 2-21], for which the insecticidal rate in assay [1] is given as 100%.
In the case of `COc1ccc(N=C2SC(=C(C)C)CCC2=CSc2ccc(F)cc2)cc1` [Compound 2-22], the insecticidal rate in assay [1], in assay [3] and in assay [2] was 100% in each case.
In the case of `COc1ccc(N=C2SC(=C(C)C)CCC2=CSc2ccccc2)cc1` [Compound 2-23], in assay [3], the insecticidal rate is listed as 100%.
`C=C1SC(=Nc2ccc(C)cc2)C(=CSc2ccc(F)cc2)CC12CCCCC2` [Compound 2-24]: the insecticidal rate in assay [1] and in assay [2] was 100% in each case.
For `C=C1SC(=Nc2cccc(OC)c2)C(=CSc2ccccc2)CC1(C)C` [Compound 2-25], the insecticidal rate in assay [1], in assay [3] and in assay [2] was 100% each time.
Take `C=C1SC(=Nc2ccc(C)cc2Cl)C(=CSc2ccccc2)CC1(C)C` [Compound 2-26]: the insecticidal rate in assay [1], in assay [3] and in assay [2] was 100% each time.
Consider `C=C1SC(=Nc2cccc(Cl)c2)C(=CSc2ccccc2)CC1(C)C` [Compound 2-29], for which the insecticidal rate in assay [1], in assay [3] and in assay [2] was 100% each time.
In the case of `C=C1SC(=Nc2ccc(OC)cc2OC)C(=CSc2ccccc2)CC1(C)C` [Compound 2-30], the insecticidal rate in assay [1] and in assay [3] was 100% in each case.
On to `C=C1SC(=Nc2c(F)cccc2F)C(=CSc2ccccc2)CC1(C)C` [Compound 2-31], for which the insecticidal rate in assay [1], in assay [3] and in assay [2] was 100% each time.
In the case of `C=C1SC(=Nc2ccc(OC)cc2F)C(=CSc2ccccc2)CC1(C)C` [Compound 2-33], the insecticidal rate in assay [1], in assay [3] and in assay [2] was 100% each time.
In the case of `C=C1SC(=Nc2cccc(Cl)c2Cl)C(=CSc2ccccc2)CC1(C)C` [Compound 2-37], the insecticidal rate in assay [1], in assay [3] and in assay [2] was 100% throughout.
Take `C=C1SC(=Nc2ccc3c(c2)OCO3)C(=CSc2ccccc2)CC1(C)C` [Compound 2-39]: the insecticidal rate in assay [1], in assay [3] and in assay [2] was 100% throughout.
With `C=C1SC(=Nc2ccc(OC)cc2C)C(=CSc2ccc(OC)cc2)CC1(C)C` [Compound 2-42], the insecticidal rate in assay [1], in assay [3] and in assay [2] was 100% in each case.
As for `COc1ccc(N=C2SC(=C(C)C)CCC2=CSc2ncccn2)cc1` [Compound 2-43], the insecticidal rate in assay [1] came to 100%.
For `C=C1SC(=Nc2cc(Cl)ccc2Cl)C(=CSc2ccccc2)CC1(C)C` [Compound 2-44], the insecticidal rate in assay [1] and in assay [2] was 100% throughout.
Consider `C=C1SC(=Nc2ccc(OC)cc2)C(=CSc2ncccn2)CC1(C)C` [Compound 2-47], for which the insecticidal rate in assay [1], in assay [3] and in assay [2] was 100% each time.
With `C=C1SC(=Nc2ccc(C)cc2)C(=CSC(C)(C)C)CC1(C)C` [Compound 2-74], the insecticidal rate in assay [1] and in assay [2] was 100% throughout.
In the case of `C=C1SC(=Nc2ccc(OC)cc2)C(=CSc2ccc(C=O)cc2)CC1(C)C` [Compound 2-82], the insecticidal rate in assay [1] was 100%.
`C=C1SC(=Nc2ccc(OC)cc2)C(=CSc2ccc(C(F)(F)F)cn2)CC1(C)C` [Compound 2-95]: the insecticidal rate in assay [1] and in assay [2] was 100% throughout.
`C=C1SC(=Nc2ccc(C)cc2)C(=CSc2ccccc2CO)CC1(C)C` [Compound 2-96] showed an insecticidal rate in assay [1] of 100%.
In assay [2], `C=C1SC(=Nc2ccc(OC)cc2)C(=CSc2cccc(Oc3ccccc3)c2)CC1(C)C` [Compound 2-109] yielded an insecticidal rate of 100%.
For the compound `C=C1SC(=Nc2ccc(C)cc2)C(=CSc2sccc2OC)CC1(C)C` [Compound 2-116], the insecticidal rate in assay [1] and in assay [2] was 100% each time.
As to `C=C1SC(=Nc2ccc(C)cc2)C(=CSc2cc(C)oc2C)CC1(C)C` [Compound 2-123], the insecticidal rate in assay [1] and in assay [2] was 100% throughout.
For the compound `C=C1SC(=Nc2ccc(C)cc2)C(=CSc2cc(C(F)(F)F)ccn2)CC1(C)C` [Compound 2-126], the insecticidal rate in assay [1] and in assay [3] was 100% in each case.
Regarding `C=C1SC(=Nc2ccccc2)C(=CSc2nc(C)cnc2C)CC1(C)C` [Compound 2-131], the insecticidal rate in assay [1] and in assay [2] was 100% throughout.
Consider `C=C1SC(=Nc2ccc(C)cc2)C(=CSc2nccc(OC)n2)CC1(C)C` [Compound 2-133], for which the insecticidal rate in assay [1] and in assay [2] was 100% each time.
In turn, `C=C1CCC(=CSc2ccccn2)C(=Nc2ccc(C)cc2)S1` [Compound 4-1] registered an insecticidal rate in assay [1] of 100%.
Same read-out and setting: the value for `C=C1SC(=Nc2ccc(OC)cc2)C(=CSc2ccccn2)CC1(C)C` [Compound 4-2] was 100%.
Turning to `C=C1SC(=Nc2ccc(C)cc2)C(=CSc2nccs2)CC1(C)C` [Compound 4-3], the insecticidal rate in assay [2] was 100%.
Regarding `C=C1SC(=Nc2ccc(OC)cc2)C(=CSc2cccs2)CC1(C)C` [Compound 4-4], the insecticidal rate in assay [1] and in assay [2] was 100% each time.
